Data taken from patent US20220282217A1, “COMPOSITIONS AND METHODS FOR PREPARING T CELL COMPOSITIONS AND USES THEREOF” (priority 2019, published 2022).
Where a SMILES comes first, the peptide text is derived from it.

What follows are compounds tested against HLA-A02.01 (Homo sapiens, UniProt P04439, D140Y/D185E/D98H/E176V/E277Q/G131W/G231S/I119V/I121R/I166T/I218V/L300P/L318F/N151K/N90K/P208A/P217A/Q86G/Q94H/R138H/R169H/T345S) (assay: Class I MHC peptide binding affinity (displacement of radiolabeled reference peptide)). Settings: Observed Affinity (IC50; (nM)), allele A02.01.
In short: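 MHC class I complexes were loaded with a radiolabeled reference peptide, then exposed to test peptides over a range of concentrations for 2 days. Reference peptide still bound to the complexes was quantified by size-exclusion gel filtration.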

| SMILES | IC50 [nM] |
| --- | --- |
| CC[C@H](C)[C@H](NC(=O)[C@H](CC(=O)O)NC(=O)[C@H](CC(C)C)NC(=O)[C@@H](N)CC(C)C)C(=O)N[C@@H](CC(C)C)C(=O)N[C@@H](CC(=O)O)C(=O)N[C@H](C(=O)N[C@@H](C)C(=O)NCC(=O)N[C@@H](CC(C)C)C(=O)O)[C@@H](C)O (H-LLDILDTAGL-OH; N-terminus and C-terminus assumed) | 716 |
| CC[C@H](C)[C@H](NC(=O)[C@H](CCCCN)NC(=O)[C@H](Cc1ccc(O)cc1)NC(=O)[C@@H](NC(=O)[C@@H](NC(=O)[C@H](CC(=O)O)NC(=O)[C@H](CO)NC(=O)[C@H](CCSC)NC(=O)[C@@H](N)C(C)C)[C@@H](C)O)[C@@H](C)O)C(=O)O (H-VMSDTTYKI-OH; N-terminus and C-terminus assumed) | 19.6 |

Same assay, conditions: allele A02.01; read-out: Observed Affinity (IC50; (nM))

| SMILES | IC50 [nM] |
| --- | --- |
| CC[C@H](C)[C@H](NC(=O)[C@H](Cc1ccc(O)cc1)NC(=O)[C@H](CC(C)C)NC(=O)[C@@H](N)CO)C(=O)N[C@H](C(=O)NCC(=O)N[C@@H](Cc1ccccc1)C(=O)N[C@@H](Cc1ccc(O)cc1)C(=O)NCC(=O)O)C(C)C (H-SLYIVGFYG-OH; N-terminus and C-terminus assumed) | 1060 |
| CC[C@H](C)[C@H](N)C(=O)N[C@@H](CCSC)C(=O)N[C@@H](CO)C(=O)N[C@@H](CC(C)C)C(=O)N[C@@H](Cc1c[nH]c2ccccc12)C(=O)NCC(=O)N[C@@H](CC(C)C)C(=O)N[C@H](C(=O)N[C@@H](CO)C(=O)O)C(C)C (H-IMSLWGLVS-OH) | 7320 |
| CC(C)[C@H](NC(=O)[C@H](Cc1c[nH]cn1)NC(=O)[C@@H](NC(=O)[C@H](CCC(=O)O)NC(=O)[C@H](Cc1ccccc1)NC(=O)[C@H](CO)NC(=O)[C@@H](N)CC(N)=O)C(C)C)C(=O)N[C@@H](CS)C(=O)N[C@@H](C)C(=O)O (H-NSFEVHVCA-OH; N-terminus and C-terminus assumed) | 503 |
| CSCC[C@H](NC(=O)[C@H](CCCCN)NC(=O)CNC(=O)[C@H](CC(N)=O)NC(=O)[C@H](CCC(N)=O)NC(=O)[C@@H](N)Cc1ccccc1)C(=O)N[C@@H](C)C(=O)N[C@@H](CC(C)C)C(=O)N[C@@H](CO)C(=O)N[C@@H](C)C(=O)O | 6160 |
| CSCC[C@H](N)C(=O)N[C@@H](C)C(=O)N[C@@H](CC(C)C)C(=O)N[C@@H](CC(N)=O)C(=O)N[C@@H](CO)C(=O)N[C@@H](CCC(=O)O)C(=O)N[C@@H](C)C(=O)N[C@@H](CC(C)C)C(=O)N[C@@H](CO)C(=O)N[C@H](C(=O)O)C(C)C | 129 |
| CC(C)C[C@H](NC(=O)[C@H](CC(C)C)NC(=O)CNC(=O)[C@H](Cc1ccc(O)cc1)NC(=O)[C@H](CC(C)C)NC(=O)[C@@H]1CCCN1C(=O)[C@@H](NC(=O)[C@@H](NC(=O)[C@@H](N)CC(N)=O)C(C)C)C(C)C)C(=O)O (H-NVVPLYGLL-OH; N-terminus and C-terminus assumed) | 10500 |
| CC(C)C[C@H](NC(=O)[C@@H](N)C(C)C)C(=O)N[C@H](C(=O)N[C@H](C(=O)N[C@H](C(=O)N[C@@H](CO)C(=O)N[C@H](C(=O)N[C@@H](CC(=O)O)C(=O)N[C@H](C(=O)O)C(C)C)[C@@H](C)O)[C@@H](C)O)C(C)C)[C@@H](C)O (H-VLTVTSTDV-OH) | 295 |
| CC[C@H](C)[C@H](NC(=O)[C@H](CC(C)C)NC(=O)[C@@H]1CCCN1C(=O)[C@H](Cc1ccccc1)NC(=O)[C@H](CC(C)C)NC(=O)[C@H](CCC(=O)O)NC(=O)[C@@H]1CCCN1C(=O)CNC(=O)[C@@H](N)CCCCN)C(=O)O (H-KGPELFPLI-OH) | 101 |
| CC(C)C[C@H](NC(=O)[C@H](C)N)C(=O)N[C@@H](CC(N)=O)C(=O)N[C@@H](CO)C(=O)N[C@@H](CCC(=O)O)C(=O)N[C@@H](C)C(=O)N[C@@H](CC(C)C)C(=O)N[C@@H](CO)C(=O)N[C@H](C(=O)O)C(C)C (H-ALNSEALSV-OH) | 14 |
| CSCC[C@H](NC(=O)[C@H](CCC(=O)O)NC(=O)[C@H](CC(C)C)NC(=O)[C@H](CC(C)C)NC(=O)[C@H](CC(C)C)NC(=O)[C@H](CC(=O)O)NC(=O)[C@H](CO)NC(=O)[C@H](CC(C)C)NC(=O)[C@@H]1CCCN1)C(=O)N[C@@H](CC(C)C)C(=O)O (H-PLSDLLLEML-OH; N-terminus and C-terminus assumed) | 6470 |
